Results: the NIST ThermoML archive (doi:10.1021/je060032n)

Experiments:
[1] = 101 kPa, Liquid; for viscosity: Capillary tube (Ostwald / Ubbelohde) method
[2] = refractive index (Na D-line) (dimensionless); settings: 101.33 kPa, Liquid, Standard Abbe refractometry
[3] = xn = mol fraction of the nth substance listed; settings: 101 kPa, Liquid, x2 = 0; for viscosity: Capillary tube (Ostwald / Ubbelohde) method
[4] = refractive index (Na D-line) (dimensionless); xn = mol fraction of the nth substance listed; settings: 101 kPa, Liquid, Standard Abbe refractometry, x2 = 0

NCCNCCO [N-(2-aminoethyl)ethanolamine]
Settings | mass density, [1] [kg/m3] | refractive index, [2] | viscosity, [1] [mPa·s]
298.15 K | 1025.28 | 1.48454 | 98.6
303.15 K | 1021.53 | 1.48269 | 70.5
313.15 K | 1014.02 | 1.47884 | 39.4
323.15 K | 1006.44 | 1.47516 | 23.4
333.15 K | 998.83 | 1.47128 | 14.8
343.15 K | 991.15 | – | 10.1

O [water] + NCCNCCO
Settings | mass density, [3] [kg/m3] | refractive index, [4] | viscosity, [3] [mPa·s]
298.15 K | – | 1.33258 | 0.882
303.15 K | – | 1.33202 | 0.804
313.15 K | – | 1.33067 | 0.659
323.15 K | 988.03 | 1.32909 | 0.551
333.15 K | 983.19 | 1.3273 | 0.47
343.15 K | 977.75 | – | 0.407
